Experimental data taken from paper PMC5344956 (Cancer Chemotherapy and Pharmacology, 2017).

Assays:
[1] = Metabolite characterization by LC/MS/MS in human plasma, urine, and feces; settings: for Matrix (in which the metabolite was found): human plasma, urine, feces, LC/MS/MS
Description: The remaining eluate stream of 0.16 mL/min from the HPLC runs was diverted to the inlet of the mass spectrometer. The samples were analyzed using a heated electrospray ionization probe. Full-scan positive ion MS data were collected using Finnigan Exactive (MS^1) or Q-Exactive (MS^1 and MS^2) mass spectrometers (Thermo Fisher Scientific Inc.) Exact conditions are described in the Online Resource 3.
Finnigan Exactive or Q-Exactive mass spectrometers (Thermo Fisher Scientific Inc., San Jose, CA) were used to collect full scan MS^1 and MS^2 data.

[2] = Metabolite profiling of plasma (HPLC-radiochromatography); format: in vivo, human; settings: % of TRA
Description: For each subject, a 0–24 h pooled plasma sample was prepared according to the scheme outlined in the literature. In addition, several pooled plasma samples across all subjects were prepared at these time points: 5, 10, 12, […], and 48 h, and every 24 h thereafter until 240 h.
All pooled 0–24, 5, 10, 12, and 24 h plasma samples were processed as follows. […] The samples were vortexed for 30 min and centrifuged at 4500g at 4 °C for 6 min. The supernatants were transferred into new polypropylene tubes and kept on ice. The resulting plasma protein pellets were extracted twice to ensure good recovery and the extracts were combined. The combined extracts were loaded onto Ostro sample preparation plates (Waters Corporation, Milford, MA, USA), dried, eluted with 0.2 mL of cold acetonitrile, and all eluates were collected and evaporated under nitrogen (TurboVap LV; Caliper Life Sciences, Hopkinton, MA, USA). The dry residues were reconstituted in 0.1 mL of methanol, and a 0.005-mL aliquot was removed for determination of radioactivity. The remainder of the supernatants were transferred to high-performance liquid chromatography (HPLC) vials and stored at −80 °C until analysis.
Pooled post-24-h plasma samples were extracted using a slightly modified procedure. […] Appropriate volumes of formic acid were added to achieve a final concentration of 1%. Then, the samples were warmed to 37 °C and loaded to preconditioned Oasis HLB cartridges (Waters Corporation, Milford, MA, USA). These columns were then washed with water, dried under vacuum, and eluted with methanol. The eluates were collected and evaporated under nitrogen. The dry residues were reconstituted in 0.1 mL of methanol, and a 0.005-mL aliquot was removed for determination of radioactivity. The remainder of the supernatants were transferred to HPLC vials and stored at −80 °C until analysis.
(§1) A Finnigan Surveyor HPLC system (Thermo Fisher Scientific Inc., San Jose, CA, USA), consisting of an LC pump plus an autosampler and a UV–Vis plus detector, was used mostly for profiling (except the post-24-h plasma samples, which were analyzed using a Dionex HPLC system). A Phenomenex® Gemini® C18, 5-μm, 3.0 × 100-mm column (Phenomenex Inc., Torrance, CA, USA) was used along with a C-12 guard column (4 × 2 mm). LC conditions were as follows: solvent A was 10 mM ammonium bicarbonate in water (pH 10.0) and solvent B was 100% methanol and the flow rate was 0.8 mL/min. The following gradient was employed (B%): 0–5 min (20%), 32 min (42%), 33 min (60%), 55 min (70%), 56–60 min (95%), and 62–70 min (20%).
(§2) Reconstituted solvent extracts (0.050–0.10 mL) of plasma, urine, or feces were injected onto the HPLC column. The post-column eluate was split after UV detection into two streams (0.64 and 0.16 mL/min). The 0.64-mL stream was diverted to a fraction collector (Gilson FX 204; Gilson Medical Electronics, Middleton, WI, USA) to be collected in 96-well plates at 0.16 min/well (ScintiPlates; PerkinElmer Life Sciences, Shelton, CT, USA), and the 0.16-mL stream was directed to the mass spectrometer. The solvent in the 96-well plates was removed at 40 °C using a Genevac evaporator (Genevac, Inc., Stone Ridge, NY, USA).
(§3) The radioactivity counts per minute (CPM) in each well was determined using a MicroBeta scintillation counter (PerkinElmer Life and Analytical Sciences). The resulting CPM vs. time data were processed using Excel (Microsoft Corporation, Seattle, WA, USA). The CPM in each well was background-subtracted (using the average CPM values of the blank region of the HPLC run). Radiochromatographic profiles were obtained by plotting the resulting net CPM values against time after injection. Radioactive peaks in the chromatographic profiles were identified, and the radioactivity in each peak was summed and reported as a percentage of TRA in the HPLC run.

[3] = Plasma pharmacokinetics of TRA, ponatinib and metabolites after a single oral 45-mg [14C]ponatinib dose
Description: The subject release criterion was defined as follows: the combined urine and fecal radioactivity excretion for two consecutive days should fall below 1% of the dose administered.
Detailed procedures on sample collection, storage, and shipment are described in Online Resource 1. […] Fecal homogenates were prepared by adding water (four times the feces weight) and homogenizing.
(§4) TRA analysis was carried out at ABC Laboratories. The radioactivity in plasma (duplicate per time point) and urine samples (triplicate per time point) was quantitated by direct counting in a Beckman LS6000SC or LS6500 liquid scintillation counter (PerkinElmer Life and Analytical Sciences, Boston, MA, USA). Whole blood (duplicate per time point) and fecal homogenate (triplicate per time point) samples were oxidized, and the resultant ^14CO2 was trapped in Carbosorb (Calgon Carbon Corporation, Pittsburgh, PA, USA) in combination with Permafluor, followed by liquid scintillation counting to determine the radioactivity. Individual samples were counted for 5 min for whole blood and fecal matrices, and 10 min for plasma and urine matrices. Predose blood, plasma, urine, and feces samples served as respective control samples to determine and subtract the background radioactivity in the analysis.
M14 was quantitated using a different LC/MS/MS method (Online Resource 2). The pharmacokinetic analysis was carried out using WinNonlin® v6.4 (Pharsight Corp., Mountain View, CA, USA).
Aliquots of 30 µl of calibration standards, quality controls, and incurred plasma samples were transferred into a 96-well plate. Then 150 µl of ice-cold acetonitrile containing 50 ng/ml of AP30376 (d6-AP24600, internal standard) were added. The 96-well plate was vortexed for 10 min and then centrifuged at 4750 rpm for 20 min at 4°C. 100 µl aliquots of the supernatants were transferred into another 96-well plate and the samples were analyzed by liquid chromatography tandem mass spectrometry.

[4] = Metabolite profiling of feces (HPLC-radiochromatography); format: in vivo, human; settings: 0–144 h pool
Description: One-gram samples of the fecal homogenates were transferred to 50-mL polypropylene tubes, extracted with 4 mL of methanol, and centrifuged (4500g). The resulting residues were extracted three more times (once with 2 mL of methanol and twice with 1 mL of methanol containing 1% formic acid) and centrifuged. All supernatants were combined and evaporated under nitrogen, and the residue was reconstituted with 0.5 mL of methanol, vortexed, sonicated, and centrifuged. A 0.010-mL aliquot of the supernatant was removed for determination of radioactivity, and the remainder of the supernatant was transferred to an HPLC vial and stored at −80 °C.
as §1, §2, §3

[5] = Excretion and mass balance in urine and feces; format: in vivo, human
Description: Six healthy male volunteers, 25–45 years of age, with a mean body weight of 83.3 kg (range 64.5–94.4) and a mean body mass index of 26.9 kg/m^2 (range 20.2–29.9) participated in the study. […] The subject release criterion was defined as follows: the combined urine and fecal radioactivity excretion for two consecutive days should fall below 1% of the dose administered.
Detailed procedures on sample collection, storage, and shipment are described in Online Resource 1. […] Urine and feces collected from each subject were pooled at predose and every 24 h thereafter. Fecal homogenates were prepared by adding water (four times the feces weight) and homogenizing.
as §4
All urine voided was collected and stored in containers at 5±3 °C until the collection interval was completed. Subjects voided in the morning prior to study drug administration.
Multiple collections of urine during each collection interval from each individual subject were pooled. The urine samples from each collection interval were well mixed, accurately weighed, and assessed for its pH. A 100 ml sample from each collection interval from each subject was aliquoted into a separately labeled container to be sent to ABC Laboratories for radioactivity analysis. An approximately 10 ml sample from each collection interval from each subject on day 8 and each day thereafter was used for TRA analysis at Celerion (Lincoln, NE). All urine samples were kept frozen at −80 ± 15 °C.
Stool collections began approximately 24 h prior to drug administration until the end of the postdose sampling period. The 24 h predose samples were used as control samples for the radioactivity analysis and metabolite profiling. Feces were collected daily (24 h collection periods) until subjects were discharged from the clinical research unit.
All fecal samples were collected in polypropylene containers; toilet paper was collected separately. The weight of each sample was recorded. Multiple collections of feces during each collection interval from each individual subject were pooled. The feces samples were thoroughly homogenized with water (4X the weight of the feces). A 100 g sample was aliquoted into a separately labeled container to be sent to ABC Laboratories for radioactivity analysis. An approximately 10 g sample from each collection interval from each subject on day 8 and each day thereafter was used for TRA analysis at Celerion. All fecal homogenate samples were kept frozen at −80 ± 15 °C.

SMILES | Matrix (in which the metabolite was found) [1] | % Distribution in plasma ([2]; 0–24 h pooled plasma) | % Distribution in plasma ([2]; 5 h pooled plasma) | % Distribution in plasma ([2]; 10 h pooled plasma) | % Distribution in plasma ([2]; 12 h pooled plasma) | % Distribution in plasma ([2]; 36 h pooled plasma) | % Distribution in plasma ([2]; 48 h pooled plasma) | % Distribution in plasma ([2]; 72 h pooled plasma) | % Distribution in plasma ([2]; 96 h pooled plasma) | further results
CN1CCN(Cc2ccc(N)cc2C(F)(F)F)CC1 [M19, 4-((4-methylpiperazin-1-yl)methyl)-3-(trifluoromethyl)aniline] |  |  |  |  |  |  |  |  |  | detection in human samples (plasma, urine, feces) ([1]; in vivo): not observed in any human samples; detection in human samples (plasma, urine, feces) ([1]; male, human, in vivo): The amide hydrolysis also would result in an aniline metabolite M19 (AP24592). However, this metabolite was not detected in any matrices.
CC(=O)Nc1ccc(CN2CCN(C)CC2)c(C(F)(F)F)c1 [M22] | Trace: P, U, F |  |  |  |  |  |  |  |  | detection in human samples (plasma, urine, feces) ([1]; MS traces): trace levels
Cc1ccc(C(=O)Nc2ccc(CN3CC[N+](C)([O-])CC3)c(C(F)(F)F)c2)cc1C#Cc1cnc2cccnn12 [M36, 4-(4-(3-(imidazo[1,2-b]pyridazin-3-ylethynyl)-4-methylbenzamido)-2-(trifluoromethyl)benzyl)-1-methylpiperazine 1-oxide] | P, U, F | ~0.5–1.0% | ~0.5% | ~0.5–1.0% | ~0.5–1.0% | – (“–” values less than 0.5% are not reported) | – (“–” values less than 0.5% are not reported) | – (“–” values less than 0.5% are not reported) | – (“–” values less than 0.5% are not reported) | 
Cc1ccc(C(=O)Nc2ccc(CN3CCNCC3)c(C(F)(F)F)c2)cc1C#Cc1cnc2cccnn12 [M42, 3-(imidazo[1,2-b]pyridazin-3-ylethynyl)-4-methyl-N-(4-(piperazin-1-ylmethyl)-3-(trifluoromethyl)phenyl)benzamide] | P, U, F | ~0.5–1.0% | ~0.5–1.0% | ~0.5–1.0% | ~0.5–1.0% | – (“–” values less than 0.5% are not reported) | – (“–” values less than 0.5% are not reported) | – (“–” values less than 0.5% are not reported) | – (“–” values less than 0.5% are not reported) | plasma level at 144 h postdose ([3]; human plasma, 144 h postdose): at or below detectable limits; time postdose at which C max / maximal levels in plasma were observed ([3]; human plasma, single oral 45-mg dose, M23 by radiochromatography): 2 to 12 h; concentration at 144 h ([3]; male, human, plasma, oral, 45 mg): < 0.2 nM; AUC(0-inf) ([3]; male, human, plasma, po, 45 mg): 1.8 µM·h; AUC(0-t) ([3]; male, human, plasma, po, 45 mg): 1.61 µM·h; Cmax ([3]; male, human, plasma, po, 45 mg): 107 nM; Tmax ([3]; male, human, plasma, po, 45 mg): 2 h; half-life ([3]; male, human, plasma, po, 45 mg): 56 h; % of total radioactive dose [4]: 8.3%; % Distribution in matrix ([4]; % of fecal TRA): 9.6%
Cc1ccc([14C](=O)Nc2ccc(CN3CCN(C)CC3)c(C(F)(F)F)c2)cc1C#Cc1cnc2cccnn12 [[^14C]ponatinib] |  |  |  |  |  |  |  |  |  | share of total urinary TRA contained in the 0–72-h pool ([5]; 0–72 h): 84%; cumulative recovery in feces during 0–144 h, share of the TRA in feces ([5]; 0–144 h): 91%; dose recovered in feces ([5]; 0–336 h (days 0–14) postdose): 86.6%; dose recovered in urine ([5]; 0–336 h (days 0–14) postdose): 5.4%; total radioactive dose recovered (urine and feces) ([5]; 0–336 h postdose): 92%
